Measurements from US20130280188A1, “SELF-TANNING COSMETIC” (KAO CORPORATION, priority 2012, published 2013).

How the values were obtained:
[1] = target: T1, olfactory receptor OR5K1 (Homo sapiens, UniProt Q8NHB7); test: Luciferase reporter gene assay of olfactory receptor response in HEK293 cells; format: cell-based; conditions: for Concentration-dependent response of OR5K1: 0, 3, 10, 30, 100, 300, and 1000 μM, HEK293 cells with RTP1S variant, FIG. 5
T1 construct: expressed in transfected cells; host or cells: HEK293
T1 sequence (Q8NHB7 1-308): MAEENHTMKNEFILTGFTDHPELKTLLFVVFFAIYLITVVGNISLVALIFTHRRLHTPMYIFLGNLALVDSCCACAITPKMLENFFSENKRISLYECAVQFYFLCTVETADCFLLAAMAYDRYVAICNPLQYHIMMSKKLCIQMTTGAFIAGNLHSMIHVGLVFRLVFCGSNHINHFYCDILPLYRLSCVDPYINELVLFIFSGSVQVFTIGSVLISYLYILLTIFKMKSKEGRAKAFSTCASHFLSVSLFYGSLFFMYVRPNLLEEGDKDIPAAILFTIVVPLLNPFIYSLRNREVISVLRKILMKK
Description: Human olfactory receptors were cloned based on sequence information registered in GenBank by PCR using human genomic DNA female (G1521: Promega Corporation) as a template. Each gene amplified by FCR was incorporated into pENTR vector (Invitrogen Inc.) in accordance with the manual and recombined to the NotI and AscI sites located downstream of a Flag-Rho tag sequence in a pME18S vector using the NotI and AscI sites present on the pENTR vector.
An RTP1S variant gene (SEQ ID NO: 3) encoding an RTP1S variant (SEQ ID NO: 4) was incorporated into the EcoRI and XhoI sites of a pME18S vector.
HEK293 cells expressing 373 types of human olfactory receptors were produced. A reaction solution having a composition shown in Table 2 was prepared, left to stand in a clean bench for 15 min and then was dispensed in each well of a 96 well plate (Becton, Dickinson and Company). Subsequently, HEK293 cells (100 μL, 3×10^5 cells/cm^2) were seeded in each well and cultured in an incubator at 37° C. under 5 mass % CO2 for 24 hours.
An olfactory receptor expressed in HEK293 cells couples with endogenous Gas in the cells to activate adenylate cyclase and thereby increases the amount of intracellular cAMP. In this study, the odor response was measured by luciferase reporter gene assay which monitors an increase in amount of intracellular cAMP as the luminescence value derived from a firefly luciferase gene (fluc2P-CRE-hygro). A Renilla luciferase gene was fused with the downstream of a CMV promoter (hRluc-CMV) and was also introduced to HEK293 cells as an internal standard to correct errors in gene transfer efficiency and number of cells.
The culture medium was removed from the culture produced in the above 3), and 75 μL of a solution prepared with a CD293 medium (Invitrogen Inc.) so as to contain a pyrazine derivative (1 mM 2,6-dimethylpyrazine) was added thereto. The cells were cultured in a CO2 incubator for 2.5 hours to sufficiently express the luciferase gene in the cells. The luciferase activity was measured with a Dual-Glo™ luciferase assay system (Promega Corporation) in accordance with the operating manual of the system. The fold increases were calculated by dividing the luminescence value derived from firefly luciferase induced by stimulation with the odor substances by the luminescence value in cells not stimulated with the odor substances and were used as an index of response strength.
Olfactory receptor OR5K1 (SEQ ID NO: 2) was expressed in HEK293 cells together with an RTP1S variant (SEQ ID NO: 4) by the same procedure as in Test Example 3, and the dependency of the response on the concentration (0, 3, 10, 30, 100, 300, and 1000 μM) in various pyrazine compounds was investigated. The pyrazine compounds used in this Example were pyrazine and pyrazine derivatives selected from the group consisting of 2-methylpyrazine, 2,3-dimethylpyrazine, 2,5-dimethylpyrazine, 2,3,5-trimethylpyrazine, 2,3,5,6-tetramethylpyrazine, and 2-ethylpyrazine.

[2] = target: T1, olfactory receptor OR5K1; test: Antagonist activity against OR5K1 response to 2,6-dimethylpyrazine (luciferase assay, HEK293 cells); format: cell-based; conditions: HEK293 cells expressing OR5K1; for Receptor response-inhibiting rate: 2,6-dimethylpyrazine 1 mM and test material 300 μM (cytotoxic perfumes: 333 μM and 100 JAM); for Antagonist activity on the response of OR5K1 to pyrazine derivatives: 2,6-dimethylpyrazine 1 mM and test material 300 μM
Protocol: Antagonist activities of 174 test materials against olfactory receptor OR5K1 were investigated by examining response of OR5K1 to a pyrazine derivative.
2,6-Dimethylpyrazine (1 mM) and each of the test materials (300 μM) were added to HEK293 cells expressing olfactory receptor OR5K1 by the same procedure as in Test Example 4, and the response of the olfactory receptor to 2,6-dimethylpyrazine was measured to evaluate a change in response of the receptor due to addition of the test material. Perfumes recognized to have cytotoxicity were re-evaluated using a mixture of 333 μM of 2,6-dimethylpyrazine and 100 JAM of a test material.
The receptor response-inhibiting rate of a test material was calculated as follows. The receptor activity (X−Y) by stimulation with 2,6-dimethylpyrazine alone was determined by subtracting the luminescence value (Y) in cells to which the receptor was introduced but were not stimulated with 2,6-dimethylpyrazine from the luminescence value (X) derived from firefly luciferase induced by odor stimulation with 2,6-dimethylpyrazine alone. Similarly, the receptor activity (Z−Y) in the presence of a test material was determined by subtracting the luminescence value (Y) in cells not stimulated with 2,6-dimethylpyrazine from the luminescence value (Z) stimulated with a mixture of 2,6-dimethylpyrazine and the test material. The reduction rate of the receptor activity (Z−Y) in the presence of a test material to the receptor activity (X−Y) by stimulation with 2,6-dimethylpyrazine alone was calculated by the following computation expression:
Inhibition rate (%)={1−(Z−Y)/(X−Y)}×100,
to determine the receptor response-inhibiting rate of the test material. In the measurement, multiple independent experiments were performed in duplicate, and the average of each experiment was used.

Row | SMILES | Concentration-dependent response of OR5K1 [1] | Response of olfactory receptor OR5K1 ([1]; 1 mM, screen of 373 types of human olfactory receptors in HEK293 cells, FIG. 4) | Receptor response-inhibiting rate [2] | Antagonist activity on the response of OR5K1 to pyrazine derivatives [2]
1 | Cc1nc(C)c(C)nc1C [2,3,5,6-tetramethylpyrazine] | concentration-dependently responded |  |  | 
2 | Cc1cnc(C)c(C)n1 [2,3,5-trimethylpyrazine] | concentration-dependently responded |  |  | 
3 | Cc1nccnc1C [2,3-dimethylpyrazine] | concentration-dependently responded |  |  | 
4 | Cc1cnc(C)cn1 [2,5-Dimethyl pyrazine, 2,5-dimethylpyrazine] | concentration-dependently responded |  |  | 
5 | Cc1cncc(C)n1 [2,6-Dimethyl pyrazine, 2,6-dimethylpyrazine] | concentration-dependently responded | responded |  | 
6 | Cc1cnccn1 [2-Methyl pyrazine, 2-methylpyrazine] | concentration-dependently responded |  |  | 
7 | CCc1cnccn1 [2-ethylpyrazine] | concentration-dependently responded |  |  | 
8 | CCC(=CCC1CC=C(C)C1(C)C)CO (stereo not drawn) [Bangalol, 2-ethyl-4-(2,2,3-trimethyl-3-cyclopenten-1-yl)-2-buten-1-ol] |  |  | 75% or more | antagonist activity
9 | CC(C=O)Cc1ccc(C(C)C)cc1 (stereo not drawn) [Cyclamen aldehyde, 2-methyl-3-(4-iso-propylphenyl)propanal] |  |  | 75% or more | antagonist activity
10 | CC(C)CC1CC(C)(O)CCO1 (stereo not drawn) [Florosa, 4-methyl-2-(2-methylpropyl)tetrahydro-2H-4-pyranol] |  |  | Not inhibited | no antagonist activity
11 | CCCCCC1C(=O)CCC1CC(=O)OC (stereo not drawn) [Methyl dihydrojasmonate, methyl dihydrojasmonate] |  |  | Not inhibited | no antagonist activity
12 | CC(=O)CCc1ccc(O)cc1 [Raspberry ketone, 4-(p-hydroxyphenyl)-2-butanone] |  |  | Not inhibited | no antagonist activity
13 | CCC=C(C)C(O)CCCCC (stereo not drawn) [Undecavertol, 4-methyl-3-decen-5-ol] |  |  | 75% or more | antagonist activity
14 | c1cnccn1 [pyrazine] | did not respond |  |  | 
